pIC50: −log10 of the molar value.
What was measured:
T-cell [1] = assay: IL-2 secretion from T-cells stimulated with anti-CD3 antibody alone (Biological Example 2); assay type: cell-based, human; conditions: T-cell, fold change over baseline, primary human total T-cells, read-out: IL-2 secretion Anti-CD3 stimulation; for fold induction at 1 µM: 1 μM Cbl-b inhibitor; for fold induction at 8 µM: 8 μM Cbl-b inhibitor
T-cell [2] = assay: CD25 cell surface staining on T-cells stimulated with anti-CD3 antibody alone (Biological Example 2); assay type: cell-based, human; conditions: T-cell, fold change over baseline, primary human total T-cells, read-out: CD25 staining Anti-CD3 stimulation; for fold induction at 1 µM: 1 μM Cbl-b inhibitor; for fold induction at 8 µM: 8 μM Cbl-b inhibitor
T-cell [3] = assay: CD25 cell surface staining on T-cells co-stimulated with anti-CD3 and anti-CD28 antibody (Biological Example 2); assay type: cell-based, human; conditions: Homo sapiens, T-cell, fold change over baseline, primary human total T-cells, read-out: CD25 staining Anti-CD3/Anti-CD28 stimulation; for fold induction at 0.3 µM: 0.3 μM Cbl-b inhibitor; for fold induction at 1 µM: 1 μM Cbl-b inhibitor; for fold induction at 4 µM: 4 μM Cbl-b inhibitor
Outline: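 T-cells were stimulated with anti-CD3 antibody alone or with anti-CD28 antibody, in the presence or absence of Cbl-b inhibitor. IL-2 secretion or CD25 surface staining was measured, and values expressed as fold over the uninhibited baseline […].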

Cbl-b [4] = target: T1, Cbl-b (Homo sapiens, UniProt Q13191); assay: Cbl-b activity assay (Cbl-b inhibition assay), TR-FRET of Cbl-b interaction with UbcH5B-Ub; assay type: biochemical; conditions: assay buffer with 100 mM NaCl, 60 nM Src kinase; read-out: Cbl-b activity IC50
Outline: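 UbcH5B (C85K) conjugated to N-terminally Bodipy-Fluorescein-labeled ubiquitin served as the fluorescent partner. After compound preincubation, Src kinase (60 nM) with 1 mM ATP and 5 mM MgCl2 (final) was added for 1.5 h, followed by a further 1 h incubation. Some values were obtained with 50 mM NaCl and 30 nM Src.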

Cbl-b [5] = target: T1, Cbl-b; assay: Cbl-b inhibition assay (Cbl-b activity assay, FRET, Biological Example 1; 100 mM NaCl, 60 nM Src kinase); assay type: biochemical; conditions: upper bound stated in text lists; read-out: IC50 values in the Cbl-b inhibition assay of Biological Example 1
Outline: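 Steps: Src kinase phosphorylates N-terminal biotinylated Avi-tagged Cbl-b; phosphorylated Cbl-b binds Bodipy-fluorescein ubiquitin-loaded UbcH5B; streptavidin-terbium on Cbl-b sits close to the fluorescein label, producing FRET. Inhibitors block UbcH5B-Ub binding.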

T1 sequence (Q13191 36-427): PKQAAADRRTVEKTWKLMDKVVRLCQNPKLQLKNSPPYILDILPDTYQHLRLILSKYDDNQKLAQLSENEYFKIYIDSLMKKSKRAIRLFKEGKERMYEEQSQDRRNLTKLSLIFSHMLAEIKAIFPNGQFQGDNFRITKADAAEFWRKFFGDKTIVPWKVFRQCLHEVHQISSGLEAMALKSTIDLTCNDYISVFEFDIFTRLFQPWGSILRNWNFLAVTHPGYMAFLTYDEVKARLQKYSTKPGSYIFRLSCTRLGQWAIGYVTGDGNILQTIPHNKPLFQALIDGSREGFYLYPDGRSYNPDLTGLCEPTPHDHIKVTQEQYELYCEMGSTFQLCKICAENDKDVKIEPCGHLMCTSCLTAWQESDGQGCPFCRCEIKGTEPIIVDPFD

Compound | fold induction at 1 µM (T-cell [1]) | fold induction at 8 µM (T-cell [1]) | fold induction at 1 µM (T-cell [2]) | fold induction at 8 µM (T-cell [2]) | fold induction at 0.3 µM (T-cell [3]) | fold induction at 1 µM (T-cell [3]) | fold induction at 4 µM (T-cell [3]) | pIC50 (Cbl-b [4]) | pIC50 (Cbl-b [5])
C[C@H](Cc1nncn1C)c1cccc(NC(=O)c2cc(S(C)(=O)=O)cc(C3CC3)n2)c1 [Compound 198, 6-cyclopropyl-N-[3-[(1R)-1-methyl-2-(4-methyl-1,2,4-triazol-3-yl)ethyl]phenyl]-4-methylsulfonyl-pyridine-2-carboxamide] | 0.101 to 0.15 | > 0.201 | 0.801 to 1 | > 1 | 1.01 to 1.3 | 1.01 to 1.3 | < 1 | 6.52 to 7.00 | ≥ 6.30
C[C@H](Cc1nncn1C)c1cccc(NC(=O)c2cc(S(N)(=O)=O)cc(C(F)(F)F)n2)c1 [Compound 200, (R)-N-(3-(1-(4-methyl-4H-1,2,4-triazol-3-yl)propan-2-yl)phenyl)-4-sulfamoyl-6-(trifluoromethyl)picolinamide] | < 0.05 | 0.051 to 0.1 | 0.801 to 1 | > 1 | 1.01 to 1.3 | 1.01 to 1.3 | 1.01 to 1.3 | 6.52 to 7.00 | ≥ 6.30
CNS(=O)(=O)c1cc(C(=O)Nc2cccc([C@H](C)Cc3nncn3C)c2)nc(C(F)(F)F)c1 [Compound 201, (R)-N-(3-(1-(4-methyl-4H-1,2,4-triazol-3-yl)propan-2-yl)phenyl)-4-(N-methylsulfamoyl)-6-(trifluoromethyl)picolinamide] | 0.151 to 0.2 | > 0.201 | 0.801 to 1 | > 1 | 1.01 to 1.3 | 1.01 to 1.3 | 1.01 to 1.3 | 6.52 to 7.00 | ≥ 6.30
C[C@H](Cc1nncn1C)c1cccc(NC(=O)c2cccc(CCO)n2)c1 [Compound 202, 6-(2-hydroxyethyl)-N-[3-[(2R)-1-(4-methyl-4H-1,2,4-triazol-3-yl)propan-2-yl]phenyl]pyridine-2-carboxamide] | 0.051 to 0.1 | 0.151 to 0.2 | < 0.6 | 0.801 to 1 | 1.01 to 1.3 | 1.01 to 1.3 | 1.31 to 1.5 | 6.00 to 6.52 | ≥ 6.00
C[C@H](Cc1nncn1C)c1cccc(NC(=O)c2cc(O[C@H]3CC[C@@H](O)C3)ccn2)c1 [Compound 206, 4-((1S,3R)-3-hydroxycyclopentyloxy)-N-(3-((R)-1-(4-methyl-4H-1,2,4-triazol-3-yl)propan-2-yl)phenyl)picolinamide] | < 0.05 | 0.051 to 0.1 | 0.801 to 1 | 0.801 to 1 | 1.01 to 1.3 | 1.01 to 1.3 | 1.01 to 1.3 | 6.00 to 6.52 | ≥ 6.00
Cc1ccc(C(=O)Nc2cccc([C@H](C)Cc3nnc[nH]3)c2)nc1C1CC1 [Compound 212, (R)-N-(3-(1-(4H-1,2,4-triazol-3-yl)propan-2-yl)phenyl)-6-cyclopropyl-5-methylpicolinamide] | < 0.05 | < 0.05 | < 0.6 | < 0.6 | 1.51 to 1.75 | 1.51 to 1.75 | > 1.76 | 6.00 to 6.52 | ≥ 6.30
Cc1conc1C[C@@H](C)c1cccc(NC(=O)c2ccnc(C(F)(F)F)n2)c1 [Compound 213a, (R)-N-(3-(1-(4-methylisoxazol-3-yl)propan-2-yl)phenyl)-2-(trifluoromethyl)pyrimidine-4-carboxamide] | 0.051 to 0.1 | 0.101 to 0.15 | 0.801 to 1 | > 1 | 1.01 to 1.3 | 1.01 to 1.3 | 1.01 to 1.3 | 6.52 to 7.00 | ≥ 6.30
C[C@H](Cc1nncn1C)c1cccc(NC(=O)c2cc(C(=O)N3CC[C@](C)(O)C3)ccn2)c1 [Compound 222, 4-((S)-3-hydroxy-3-methylpyrrolidine-1-carbonyl)-N-(3-((R)-1-(4-methyl-4H-1,2,4-triazol-3-yl)propan-2-yl)phenyl)picolinamide] | < 0.05 | < 0.05 | < 0.6 | < 0.6 | 1.51 to 1.75 | 1.31 to 1.5 | 1.51 to 1.75 | 6.00 to 6.52 | ≥ 6.00
C[C@H](Cc1nncn1C)c1cccc(NC(=O)c2cc(C(=O)N3C[C@@H](O)C[C@H]3C)ccn2)c1 [Compound 224, 4-((2R,4S)-4-hydroxy-2-methylpyrrolidine-1-carbonyl)-N-(3-((R)-1-(4-methyl-4H-1,2,4-triazol-3-yl)propan-2-yl)phenyl)picolinamide] | 0.101 to 0.15 | 0.101 to 0.15 | < 0.6 | < 0.6 | 1.01 to 1.3 | 1.01 to 1.3 | 1.51 to 1.75 | 6.52 to 7.00 | ≥ 6.30
C[C@H](Cc1nncn1C)c1cccc(NC(=O)c2cc(C(=O)N3C[C@@H](O)[C@H](F)C3)ccn2)c1 [Compound 240, 4-((3R,4R)-3-fluoro-4-hydroxypyrrolidine-1-carbonyl)-N-(3-((K)-1-(4-methyl-4H-1,2,4-triazol-3-yl)propan-2-yl)phenyl)picolinamide] | 0.151 to 0.2 | > 0.201 | 0.601 to 0.8 | 0.801 to 1 | < 1 | 1.01 to 1.3 | 1.31 to 1.5 | 6.52 to 7.00 | ≥ 6.30
C[C@H](Cc1nncn1C)c1cccc(NC(=O)c2cc(C(=O)N3CC(O)C(F)(F)C3)ccn2)c1 (stereo partly drawn) [Compound 243, 4-(3,3-difluoro-4-hydroxypyrrolidine-1-carbonyl)-N-[3-[(2R)-1-(4-methyl-4H-1,2,4-triazol-3-yl)propan-2-yl]phenyl]pyridine-2-carboxamide] | > 0.201 | > 0.201 | 0.601 to 0.8 | 0.801 to 1 | < 1 | < 1 | 1.31 to 1.5 | 6.00 to 6.52 | ≥ 6.30
CCn1cnnc1C[C@@H](C)c1cccc(NC(=O)c2cc(C(=O)N3C[C@@H](O)C[C@H]3C)ccn2)c1 [Compound 251, N-(3-((R)-1-(4-ethyl-4H-1,2,4-triazol-3-yl)propan-2-yl)phenyl)-4-((2R,4S)-4-hydroxy-2-methylpyrrolidine-1-carbonyl)picolinamide] | 0.151 to 0.2 | 0.151 to 0.2 | 0.601 to 0.8 | 0.601 to 0.8 | 1.01 to 1.3 | 1.01 to 1.3 | 1.01 to 1.3 | 6.00 to 6.52 | ≥ 6.00
C[C@H](Cc1nncn1C)c1cccc(N2Cc3c(Br)cccc3C2=O)c1 [Compound 256, (R)-4-bromo-2-(3-(1-(4-methyl-4H-1,2,4-triazol-3-yl)propan-2-yl)phenyl)isoindolin-1-one] | > 0.201 | > 0.201 | 0.801 to 1 | 0.801 to 1 | 1.01 to 1.3 | 1.31 to 1.5 | 1.51 to 1.75 | 6.52 to 7.00 | ≥ 6.30
C[C@H](Cc1nncn1C)c1cccc(N2Cc3c(ccnc3C3CC3)C2=O)c1 [Compound 257, 4-cyclopropyl-2-[3-[(1R)-1-methyl-2-(4-methyl-1,2,4-triazol-3-yl)ethyl]phenyl]-3H-pyrrolo[3,4-c]pyridin-1-one] | 0.151 to 0.2 | > 0.201 | 0.601 to 0.8 | > 1 | 1.01 to 1.3 | 1.01 to 1.3 | 1.31 to 1.5 | 6.52 to 7.00 | ≥ 6.30
C[C@H](Cc1nncn1C)c1cccc(N2Cc3c(ccnc3C3CCC3)C2=O)c1 [Compound 258, (R)-4-cyclobutyl-2-(3-(1-(4-methyl-4H-1,2,4-triazol-3-yl)propan-2-yl)phenyl)-2,3-dihydropyrrolo[3,4-c]pyridin-1-one] | 0.051 to 0.1 | 0.101 to 0.15 | > 1 | > 1 | < 1 | 1.01 to 1.3 | 1.01 to 1.3 | 6.52 to 7.00 | ≥ 6.30
